Test results published in patent publication US10463671B2, “Combination therapy for treating cancer” (Epizyme, Inc., priority 2013, dated 2019).

Key:
[1] = test system: glucocorticoid signaling genes in SU-DHL10 cells; test: RT2 Glucocorticoid Signaling PCR array; type: cell-based; set-up: IL10 Ct Values / TNF Ct Values: unit not given here; conditions: SUDHL10, 4 days
WSU-DLCL2 cells = test: Medium throughput combination proliferation assay (CellTiter-Glo, Chou-Talalay CI / potency shift)
[2] = test system: glucocorticoid signaling genes in DOHH2 cells; test: RT2 Glucocorticoid Signaling PCR array; type: cell-based; conditions: vs DMSO; DOHH2, 4 days
DOHH2 cells = test: Medium throughput combination proliferation assay (CellTiter-Glo, Chou-Talalay CI / potency shift); conditions: DOHH2 EZH2 wild-type cells

CCN(c1cc(-c2ccc(CN3CCOCC3)cc2)cc(C(=O)NCc2c(C)cc(C)[nH]c2=O)c1C)C1CCOCC1 [Compound 44]
ACTB Ct Values [1]: 14.828 | ADARB1 Ct Values [1]: 31.215 | AFF1 Ct Values [1]: 29.849 | AK2 Ct Values [1]: 20.974 | AMPD3 Ct Values [1]: 27.654 | ANGPTL4 Ct Values [1]: 32.107 | ANXA4 Ct Values [1]: 24.961 | ARID5B Ct Values [1]: 28.208 | ASPH Ct Values [1]: 23.837 | ATF4 Ct Values [1]: 20.607 | B2M Ct Values [1]: 19.147 | BCL6 Ct Values [1]: 22.639 | CEBPA Ct Values [1]: 28.900 | CEBPB Ct Values [1]: 26.624 | CREB1 Ct Values [1]: 23.809 | CREB3 Ct Values [1]: 26.452 | CREB3L4 Ct Values [1]: 26.139 | CYB561 Ct Values [1]: 37.004 | DDIT4 Ct Values [1]: 26.109 | DUSP1 Ct Values [1]: 31.300 | EHD3 Ct Values [1]: 26.768 | FKBP5 Ct Values [1]: 22.883 | FOSL2 Ct Values [1]: 32.931 | GAPDH Ct Values [1]: 17.793 | GDPD1 Ct Values [1]: 30.943 | GOT1 Ct Values [1]: 25.306 | H6PD Ct Values [1]: 28.126 | HNRPLL Ct Values [1]: 23.764 | HPRT1 Ct Values [1]: 20.615 | IL1RN Ct Values [1]: 32.182 | IL6R Ct Values [1]: 33.807 | IL10 Ct Values [1]: 32.505 | KLF9 Ct Values [1]: 32.525 | KLF13 Ct Values [1]: 24.536 | LOX Ct Values [1]: 35.385 | MERTK Ct Values [1]: 34.652 | MT2A Ct Values [1]: 37.225 | NFKBIA Ct Values [1]: 23.654 | NR3C1 Ct Values [1]: 23.754 | PDCD7 Ct Values [1]: 25.123 | PDP1 Ct Values [1]: 26.175 | PER1 Ct Values [1]: 27.710 | PER2 Ct Values [1]: 24.780 | PIK3R1 Ct Values [1]: 24.661 | PLEKHF1 Ct Values [1]: 28.979 | POU2F1 Ct Values [1]: 25.842 | POU2F2 Ct Values [1]: 25.098 | RASA3 Ct Values [1]: 24.277 | RGS2 Ct Values [1]: 25.587 | RHOB Ct Values [1]: 27.829 | RHOJ Ct Values [1]: 36.530 | RPLP0 Ct Values [1]: 16.821 | SESN1 Ct Values [1]: 27.480 | SGK1 Ct Values [1]: 25.358 | SLC10A6 Ct Values [1]: 37.060 | SLC19A2 Ct Values [1]: 30.597 | SLC22A5 Ct Values [1]: 30.263 | SNTA1 Ct Values [1]: 27.003 | SPHK1 Ct Values [1]: 27.804 | SPSB1 Ct Values [1]: 26.133 | STAT5A Ct Values [1]: 25.275 | STAT5B Ct Values [1]: 24.281 | TBL1XR1 Ct Values [1]: 21.846 | TNF Ct Values [1]: 23.725 | TNFAIP3 Ct Values [1]: 27.677 | TSC22D3 Ct Values [1]: 28.871 | USP2 Ct Values [1]: 23.434 | USP54 Ct Values [1]: 27.789 | VDR Ct Values [1]: 29.514 | VLDLR Ct Values [1]: 32.904 | ZFP36 Ct Values [1]: 26.643 | ZHX3 Ct Values [1]: 26.305 | ZNF2B1 Ct Values [1]: 23.857 | ACTB ΔCT (B2M) ([1]; normalized to B2M): −4.319 | ADARB1 ΔCT (B2M) ([1]; normalized to B2M): 12.068 | AFF1 ΔCT (B2M) ([1]; normalized to B2M): 10.702 | AK2 ΔCT (B2M) ([1]; normalized to B2M): 1.827 | AMPD3 ΔCT (B2M) ([1]; normalized to B2M): 8.507 | ANGPTL4 ΔCT (B2M) ([1]; normalized to B2M): 12.960 | ANXA4 ΔCT (B2M) ([1]; normalized to B2M): 5.814 | ARID5B ΔCT (B2M) ([1]; normalized to B2M): 9.061 | ASPH ΔCT (B2M) ([1]; normalized to B2M): 4.690 | ATF4 ΔCT (B2M) ([1]; normalized to B2M): 1.460 | B2M ΔCT (B2M) ([1]; normalized to B2M): 0.000 | BCL6 ΔCT (B2M) ([1]; normalized to B2M): 3.492 | CEBPA ΔCT (B2M) ([1]; normalized to B2M): 9.753 | CEBPB ΔCT (B2M) ([1]; normalized to B2M): 7.477 | CREB1 ΔCT (B2M) ([1]; normalized to B2M): 4.662 | CREB3L4 ΔCT (B2M) ([1]; normalized to B2M): 6.992 | CREB3 ΔCT (B2M) ([1]; normalized to B2M): 7.305 | CYB561 ΔCT (B2M) ([1]; normalized to B2M): 17.857 | DDIT4 ΔCT (B2M) ([1]; normalized to B2M): 6.962 | DUSP1 ΔCT (B2M) ([1]; normalized to B2M): 12.153 | EHD3 ΔCT (B2M) ([1]; normalized to B2M): 7.621 | FKBP5 ΔCT (B2M) ([1]; normalized to B2M): 3.736 | FOSL2 ΔCT (B2M) ([1]; normalized to B2M): 13.784 | GAPDH ΔCT (B2M) ([1]; normalized to B2M): −1.354 | GDPD1 ΔCT (B2M) ([1]; normalized to B2M): 11.796 | GOT1 ΔCT (B2M) ([1]; normalized to B2M): 6.159 | H6PD ΔCT (B2M) ([1]; normalized to B2M): 8.979 | HNRPLL ΔCT (B2M) ([1]; normalized to B2M): 4.617 | HPRT1 ΔCT (B2M) ([1]; normalized to B2M): 1.468 | IL1RN ΔCT (B2M) ([1]; normalized to B2M): 13.035 | IL6R ΔCT (B2M) ([1]; normalized to B2M): 14.660 | IL10 ΔCT (B2M) ([1]; normalized to B2M): 13.358 | KLF9 ΔCT (B2M) ([1]; normalized to B2M): 13.378 | KLF13 ΔCT (B2M) ([1]; normalized to B2M): 5.389 | LOX ΔCT (B2M) ([1]; normalized to B2M): 16.238 | MERTK ΔCT (B2M) ([1]; normalized to B2M): 15.505 | MT2A ΔCT (B2M) ([1]; normalized to B2M): 18.078 | NFKBIA ΔCT (B2M) ([1]; normalized to B2M): 4.507 | NR3C1 ΔCT (B2M) ([1]; normalized to B2M): 4.617 | PDCD7 ΔCT (B2M) ([1]; normalized to B2M): 5.976 | PDP1 ΔCT (B2M) ([1]; normalized to B2M): 7.028 | PER1 ΔCT (B2M) ([1]; normalized to B2M): 8.563 | PER2 ΔCT (B2M) ([1]; normalized to B2M): 5.633 | PIK3R1 ΔCT (B2M) ([1]; normalized to B2M): 5.514 | PLEKHF1 ΔCT (B2M) ([1]; normalized to B2M): 9.832 | POU2F1 ΔCT (B2M) ([1]; normalized to B2M): 6.695 | POU2F2 ΔCT (B2M) ([1]; normalized to B2M): 5.951 | RASA3 ΔCT (B2M) ([1]; normalized to B2M): 5.130 | RGS2 ΔCT (B2M) ([1]; normalized to B2M): 6.440 | RHOB ΔCT (B2M) ([1]; normalized to B2M): 8.682 | RHOJ ΔCT (B2M) ([1]; normalized to B2M): 17.383 | RPLP0 ΔCT (B2M) ([1]; normalized to B2M): −2.326 | SESN1 ΔCT (B2M) ([1]; normalized to B2M): 8.333 | SGK1 ΔCT (B2M) ([1]; normalized to B2M): 6.211 | SLC10A6 ΔCT (B2M) ([1]; normalized to B2M): 17.913 | SLC19A2 ΔCT (B2M) ([1]; normalized to B2M): 11.450 | SLC22A5 ΔCT (B2M) ([1]; normalized to B2M): 11.116 | SNTA1 ΔCT (B2M) ([1]; normalized to B2M): 7.856 | SPHK1 ΔCT (B2M) ([1]; normalized to B2M): 8.657 | SPSB1 ΔCT (B2M) ([1]; normalized to B2M): 6.986 | STAT5A ΔCT (B2M) ([1]; normalized to B2M): 6.128 | STAT5B ΔCT (B2M) ([1]; normalized to B2M): 5.134 | TBL1XR1 ΔCT (B2M) ([1]; normalized to B2M): 2.699 | TNF ΔCT (B2M) ([1]; normalized to B2M): 4.578 | TNFAIP3 ΔCT (B2M) ([1]; normalized to B2M): 8.530 | TSC22D3 ΔCT (B2M) ([1]; normalized to B2M): 9.724 | USP2 ΔCT (B2M) ([1]; normalized to B2M): 4.287 | USP54 ΔCT (B2M) ([1]; normalized to B2M): 8.642 | VDR ΔCT (B2M) ([1]; normalized to B2M): 10.367 | VLDLR ΔCT (B2M) ([1]; normalized to B2M): 13.757 | ZFP36 ΔCT (B2M) ([1]; normalized to B2M): 7.496 | ZHX3 ΔCT (B2M) ([1]; normalized to B2M): 7.158 | ZNF2B1 ΔCT (B2M) ([1]; normalized to B2M): 4.710 | ARID5B ΔΔCT ([1]; vs DMSO): 0.650 | EHD3 ΔΔCT ([1]; vs DMSO): −0.885 | FKBP5 ΔΔCT ([1]; vs DMSO): 0.042 | PIK3R1 ΔΔCT ([1]; vs DMSO): 0.431 | SLC19A2 ΔΔCT ([1]; vs DMSO): −1.143 | USP54 ΔΔCT ([1]; vs DMSO): −0.064 | maximum reduction in Compound 44 IC50 with Prednisolone (WSU-DLCL2 cells; WSU-DLCL2 (FIG. 3A)): 24 fold | potency enhancement of Compound 44 at biologically relevant concentration of Dexamethasone (WSU-DLCL2 cells; WSU-DLCL2, 100 nM Dexamethasone): 15 fold | potency enhancement of Compound 44 at biologically relevant concentration of Prednisolone (WSU-DLCL2 cells; WSU-DLCL2, 1 μM Prednisolone): 7 fold | FKBP5 ΔΔCT [2]: −0.032 | SPSB1 ΔΔCT [2]: −0.025 | anti-proliferative effect as a single agent (DOHH2 cells): no anti-proliferative effect
